Where “and” joins values, the source holds several entries; their conditions need not be identical. Equal values may be shown once. Read-outs that look alike come from different tables or passages of the source.
How the values were obtained:
[1] = system: internal mammary artery (IMA); type: cell-based; set-up: Diameter of the conduit, 0 hrs. / Diameter of the conduit, 2 hrs. / Diameter of the conduit, 12 hrs. / Diameter of the conduit, 24 hrs. / Diameter of the conduit, 48 hrs. / Diameter of the conduit, 72 hrs.: unit not given here
[2] = system: radial artery; type: cell-based; set-up: Diameter of the conduit, 0 hrs. / Diameter of the conduit, 2 hrs. / Diameter of the conduit, 12 hrs. / Diameter of the conduit, 24 hrs. / Diameter of the conduit, 72 hrs.: unit not given here
[3] = system: saphenous vein; type: cell-based; set-up: Diameter of the conduit, 0 hrs. / Diameter of the conduit, 2 hrs. / Diameter of the conduit, 12 hrs. / Diameter of the conduit, 24 hrs. / Diameter of the conduit, 48 hrs. / Diameter of the conduit, 72 hrs.: unit not given here
[4] = topical vasodilators used to overcome vasospasm; cited from earlier work
[5] = IMA, NTG 0.5 micromol/L, verapamil 100 nanomol/L
[6] = Radial, NTG 0.5 micromol/L, verapamil 100 nanomol/L
[7] = Vein, NTG 0.5 micromol/L, verapamil 100 nanomol/L

O=[N+]([O-])OCC(CO[N+](=O)[O-])O[N+](=O)[O-] [NTG, nitroglycerine]
Aug % (maximum increase in diameter at a given time point compared to baseline) [1]: 73% and 50% and 47% | Diameter of the conduit, 0 hrs. [1]: 1.5 and 2.2 and 2.3 | Diameter of the conduit, 2 hrs. [1]: 2.1 and 2.4 and 2.7 | Diameter of the conduit, 12 hrs. [1]: 2.3 and 2.5 and 2.8 | Diameter of the conduit, 24 hrs. [1]: 2.3 and 2.6 | Diameter of the conduit, 48 hrs. [1]: 2.4 and 2.8 and 2.9 | Diameter of the conduit, 72 hrs. [1]: 2.9 and 3.1 and 3.4 | Aug % (maximum increase in diameter at a given time point compared to baseline) [2]: 52% and 44% and 42% | Diameter of the conduit, 0 hrs. [2]: 2.5 and 2.3 and 2.6 | Diameter of the conduit, 2 hrs. [2]: 2.9 and 3.0 and 3.3 | Diameter of the conduit, 12 hrs. [2]: 3.6 and 3.0 and 3.5 | Diameter of the conduit, 24 hrs. [2]: 3.8 and 2.9 and 3.7 | Diameter of the conduit, 48 hrs. [2]: 3.7 | Diameter of the conduit, 72 hrs. [2]: 3.8 and 3.3 and 3.7 | Aug % (maximum increase in diameter at a given time point compared to baseline) [3]: 66% and 67% and 51% | Diameter of the conduit, 0 hrs. [3]: 2.4 and 3.7 and 2.7 | Diameter of the conduit, 2 hrs. [3]: 4.0 and 6.2 | Diameter of the conduit, 12 hrs. [3]: 3.8 and 6.0 and 4.1 | Diameter of the conduit, 24 hrs. [3]: 4.1 and 5.9 and 3.8 | Diameter of the conduit, 48 hrs. [3]: 3.7 and 6.1 and 3.9 | Diameter of the conduit, 72 hrs. [3]: 3.7 and 6.2

COc1ccc(Cc2nccc3cc(OC)c(OC)cc23)cc1OC [papaverine]
increase in free flow [4]: 70%

COc1ccc(CCN(C)CCCC(C#N)(c2ccc(OC)c(OC)c2)C(C)C)cc1OC (stereo not shown) [verapamil]
Diameter of the conduit, 2 hrs. [1, 5]: 2.4 and 2.1 and 2.7 | Diameter of the conduit, 12 hrs. [1, 5]: 2.6 and 2.4 and 2.8 | Diameter of the conduit, 24 hrs. [1, 5]: 2.5 and 2.3 and 2.9 | Diameter of the conduit, 48 hrs. [1, 5]: 3.0 and 2.5 | Diameter of the conduit, 72 hrs. [1, 5]: 2.9 and 2.7 and 3.1 | Aug % (maximum increase in diameter at a given time point compared to baseline) [1, 5]: 61% and 59% and 64% | Diameter of the conduit, 0 hrs. ([1]; IMA, baseline 0 hrs, Kreb's solution 37° C., NTG 0.5 micromol/L, verapamil 100 nanomol/L): 1.8 and 1.7 and 1.9 | Diameter of the conduit, 2 hrs. [2, 6]: 3.5 and 3.9 and 4.1 | Diameter of the conduit, 12 hrs. [2, 6]: 3.5 and 3.9 | Diameter of the conduit, 24 hrs. [2, 6]: 3.8 | Diameter of the conduit, 48 hrs. [2, 6]: 3.6 and 3.8 | Diameter of the conduit, 72 hrs. [2, 6]: 3.6 and 3.9 | Aug % (maximum increase in diameter at a given time point compared to baseline) [2, 6]: 57% and 62% and 52% | Diameter of the conduit, 0 hrs. ([2]; Radial, baseline 0 hrs, Kreb's solution 37° C., NTG 0.5 micromol/L, verapamil 100 nanomol/L): 2.3 and 2.4 and 2.7 | Diameter of the conduit, 2 hrs. [3, 7]: 5.1 and 5.2 and 5.5 | Diameter of the conduit, 12 hrs. [3, 7]: 4.8 and 5.7 and 5.3 | Diameter of the conduit, 24 hrs. [3, 7]: 5.0 and 5.8 and 5.2 | Diameter of the conduit, 48 hrs. [3, 7]: 4.7 and 5.7 and 5.5 | Diameter of the conduit, 72 hrs. [3, 7]: 4.8 and 5.8 and 5.4 | Aug % (maximum increase in diameter at a given time point compared to baseline) [3, 7]: 70% and 65% and 66% | Diameter of the conduit, 0 hrs. ([3]; Vein, baseline 0 hrs, Kreb's solution 37° C., NTG 0.5 micromol/L, verapamil 100 nanomol/L): 3.0 and 3.5 and 3.3

Reference: US20020168396A1 (priority 2001, published 2002)
